Data published in US8685936B2, “Sphingosine kinase inhibitor prodrugs” (Apogee Biotechnology Corporation, priority 2009, dated 2014).
“Also recorded” adds a separate entry of the source.

Tests used:
[1] = tested on: DSS-colitis model; test: Acute DSS-colitis model of inflammatory bowel disease; type: in vivo, C57BL/6 mice
Description: FIG. 7. Effects of Compound 1 and Compound 2 on the Disease Activity Index (DAI) in the acute DSS-colitis model. […] After 6 days, the DAI was calculated for each group. Values represent the mean±std. dev. for 5-6 mice per group. […] FIG. 8. Effects of Compound 1 and Compound 2 on colon length in the acute DSS-colitis model. […] After 6 days, the animals were sacrificed and the length of the colon was measured. Values represent the mean±std. dev. for 6-7 mice per group. In this model, colon length decreases as the disease progresses. […] FIG. 9. Effects of Compound 1 and Compound 2 on neutrophil infiltration into the colon in the acute DSS-colitis model. […] After 6 days, the animals were sacrificed and the colons were harvested. Myeloperoxidase activity (MPO) was measured and normalized by the protein concentration of the samples. Values represent the mean±std. dev. for 6-7 mice per group. In this model, MPO activity in the colon increases as a result of neutrophil infiltration into the colon as the disease progresses. […] FIG. 10. Effects of ester prodrugs on colon length in the acute DSS-colitis model. C57BL/6 mice were treated for 6 days as follows: 2% DSS in the drinking water and daily oral administration of Vehicle (described in FIG. 7); or 2% DSS in the drinking water and oral administration of 50 mg/kg the indicated ester prodrugs in Vehicle. After 6 days, the animals were sacrificed and the length of the colon was measured. Values represent the mean±std. dev. for 4-5 mice per group. In this model, colon length decreases as the disease progresses. […] FIG. 11. Effects of ester prodrugs on neutrophil infiltration into the colon in the acute DSS-colitis model. C57BL/6 mice were treated for 6 days as follows: 2% DSS in the drinking water and daily oral administration of Vehicle (described in FIG. 7); or 2% DSS in the drinking water and oral administration of 50 mg/kg the indicated ester prodrugs in Vehicle. After 6 days, the animals were sacrificed and the length of the colon was measured. Values represent the mean±std. dev. for 4-5 mice per group. In this model, MPO activity in the colon increases as a result of neutrophil infiltration into the colon as the disease progresses. […] In these experiments, male C57BL/6 mice were provided with standard rodent diet and water ad libitum. After their acclimation, the animals were randomly divided into groups of 5 or 6 for DSS (40,000 MW from ICN Biomedicals, Inc., Aurora, Ohio)- and drug-treatment. The Compounds were dissolved in a Vehicle consisting of 46.7% PEG 400, 46.7% of a solution of 0.375% Tween 80 in saline and 6.6% ethanol, and given once daily (starting on Day 0) by oral gavage in a volume of 0.1 mL per dose. The mice were given normal drinking water or 2% DSS (starting on Day 0) and treated orally with Compound 1 or Compound 2 at a dose of 50 mg/kg daily. The body weight of each animal was measured each day, and the Disease Activity Index (DAI) was scored for each animal on Day 6. On Day 6, the animals were sacrificed by cervical dislocation and the entire colon was removed and measured to the nearest 0.1 cm. The distal 3 cm of the colons were used for biochemical analyses of inflammation markers.

[2] = Conversion of Compound 2 to Compound 1 in living mice; plasma levels of Compound 1 by HPLC; type: in vivo
Description: FIG. 4. Conversion of Compound 2 into Compound 1 in vivo. Balb/C female mice, 6-8 weeks old, were dosed with either Compound 1 (●) or Compound 2 (♦) at 50 mg/kg by intravenous injection. Mice were euthanized at the indicate times after injection, and blood was harvested by cardiac puncture and plasma was prepared. The plasma was then extracted and analyzed for Compound 1 levels by HPLC.
To extend the in vitro studies described above, the ability of Compound 2 to be converted to Compound 1 in an in vivo test system was determined. In these experiments, Compound 1 or Compound 2 was dissolved in PEG400 and administered to female Balb/C mice at a dose of 50 mg/kg by intravenous injection. Mice were sacrificed and blood was removed via cardiac puncture at 2 minutes, 15 minutes, 30 minutes or 60 minutes. The concentration of Compound 1 in the blood of the animals at each of the time points was determined using HPLC with UV detection as described in the previous Example. […] In the case of administration of Compound 2, plasma concentrations of Compound 1 rose during the first 30 minutes and then were decreased with a half-time of clearance of approximately 20 minutes.

[3] = tested on: esterases in mouse plasma; test: Conversion of ester prodrugs to Compound 1 by mouse plasma (HPLC); type: in vitro ADME
Description: FIG. 2. Chromatogram of Compound 2. Purified Compound 2 was analyzed by high-performance liquid chromatography using a Waters 2795 system equipped with a photodiode array detector. Separations were conducted using a Nova-Pak C18 column (3.9×150 mm, Waters) eluted isocratically with a mobile phase that consisted of 65% Solvent A (methanol containing 0.1% formic acid) and 35% Solvent B (5% acetonitrile and 95% water containing 0.1% formic acid) at a flow rate of 0.6 mL/min. Compound 2 was detected by its absorbance at the wavelength of 265 nm.
FIG. 3. Conversion of Compound 2 to Compound 1 by plasma enzymes. Purified Compound 2 was incubated with mouse plasma for 5 minutes at room temperature. The sample was then extracted and analyzed by high-performance liquid chromatography as described for FIG. 2.
Prodrugs are compounds that are converted to a biologically active metabolite through the action of enzymes in the body. […] When Compound 2 was incubated with plasma isolated from mouse blood at room temperature for 5 minutes and then analyzed by a similar HPLC process, the peak corresponding to Compound 2 was reduced by more than 95%, and new compounds that eluted with retention times consistent with the monoester of Compound 1, i.e. one of the acetyl esters had been removed, and Compound 1 itself, i.e. both of the acetyl esters had been removed (FIG. 3). […]

CC(=O)Oc1ccc(CCNC(=O)C23CC4CC(C2)CC(c2ccc(Cl)cc2)(C4)C3)cc1OC(C)=O [Compound 2, Acetic acid 2-acetoxy-5-(2-{[3-(4-chlorophenyl)-adamantane-1-carbonyl]-amino}ethyl)phenyl ester]
Disease Activity Index (DAI) ([1]; 2% DSS in drinking water, 50 mg/kg daily oral, Day 6, C57BL/6 mice, 50 mg/kg): reduced the intensity of the IBD manifestations; also recorded: superior to Compound 1 in reducing the DAI
colon myeloperoxidase (MPO) activity (neutrophil infiltration) ([1]; 2% DSS, 50 mg/kg daily oral, Day 6, C57BL/6 mice (Example 16, FIG. 9), 50 mg/kg): markedly attenuated; also recorded: reduced to a greater extent
colon length (contraction of the colon), ester prodrugs ([1]; 2% DSS, 50 mg/kg oral, 6 days, C57BL/6 mice, 4-5 per group (Example 17, FIG. 10)): effective in preventing the contraction of the colons
colon length ([1]; 2% DSS, 50 mg/kg oral, Day 6, C57BL/6 mice (Example 16, FIG. 8), 50 mg/kg): colons of significantly longer length; also recorded: superior to the protective effect of Compound 1
area-under-the-curve (AUC) for exposure to circulating Compound 1, compared with dosing Compound 1 itself ([2]; 50 mg/kg intravenous, female Balb/C mice): much greater
half-time for clearance of Compound 1 from plasma ([2]; 50 mg/kg of the named compound by intravenous injection in PEG400, female Balb/C mice, Compound 1 measured): approximately 20 minutes
reduction of the HPLC peak corresponding to Compound 2 ([3]; incubated with mouse plasma at room temperature for 5 minutes): more than 95%
cleavage of the esters / conversion to Compound 1 by mouse plasma ([3]; mouse plasma, room temperature, 5 minutes, HPLC): rapidly convert Compound 2 into Compound 1
